The target in the test is T1, P2X7 receptor (Homo sapiens, UniProt Q99572).
T1 construct: host or cells: THP-1 monocytic cells differentiated overnight with LPS (25 ng/ml) and IFN-gamma (10 ng/ml)
T1 sequence (Q99572 1-595): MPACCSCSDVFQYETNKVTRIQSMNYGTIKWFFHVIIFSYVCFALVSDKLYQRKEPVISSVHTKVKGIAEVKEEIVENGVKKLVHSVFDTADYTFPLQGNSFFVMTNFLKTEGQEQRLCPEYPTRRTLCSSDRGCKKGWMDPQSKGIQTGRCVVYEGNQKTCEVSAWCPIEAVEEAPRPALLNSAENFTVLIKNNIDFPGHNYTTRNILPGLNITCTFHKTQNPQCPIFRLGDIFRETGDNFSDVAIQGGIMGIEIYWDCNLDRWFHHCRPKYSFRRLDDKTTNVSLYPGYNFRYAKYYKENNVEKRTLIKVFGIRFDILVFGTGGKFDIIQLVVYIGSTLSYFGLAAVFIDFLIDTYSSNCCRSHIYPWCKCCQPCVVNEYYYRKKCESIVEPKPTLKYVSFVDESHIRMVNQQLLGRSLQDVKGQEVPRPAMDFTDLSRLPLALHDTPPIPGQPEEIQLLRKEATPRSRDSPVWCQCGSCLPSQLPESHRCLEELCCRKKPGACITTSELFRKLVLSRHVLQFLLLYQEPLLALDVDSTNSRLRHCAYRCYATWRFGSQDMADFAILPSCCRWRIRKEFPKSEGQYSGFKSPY
Kind of test: P2X7 mediated pore formation (YO-PRO dye uptake, FLIPR). The test is classed as cell-based. The following applies: THP-1 cells. An excerpt:
Tissue Culture: Cells of the THP-1 monocytic cell line (American Type Culture Collection, Rockville, Md.) were maintained in the log phase of growth in RPMI medium containing high glucose and 10% fetal calf serum (Invitrogen, Carlsbad, Calif.) according to established procedures (Humphrey B D and Dubyak G R (1996), Induction of the P2z/P2X7 Nucleotide Receptor and Associated Phospholipase D Activity by Lipopolysaccharide and IFN-γ in the Human THP-1 Monocytic Cell Line. J. Immunology 157:5627-37). Fresh vials of frozen THP-1 cells were initiated for growth every eight weeks. […]
P2X7 Mediated Pore Formation. […] Accordingly, the inhibitory activity of the antagonists of the present invention was determined by their capacity to inhibit the agonist-induced pore formation using the fluorescent dye YO-PRO (MW=629) and Fluorometric Imaging Plate Reader (FLIPR, Molecular Devices, Sunnydale, Calif.). […] The intensity of the fluorescence was captured by the CCD camera every 15 seconds for the first 10 minutes of agonist exposure followed by every 20 seconds for an additional 50 minutes with the data being digitally transferred to an interfaced PC. […] The test compounds were incubated for 10 minutes with the THP-1 cells at room temperature, after which the cells were stimulated with BzATP and fluorescence measured as described above in the […] of the antagonist. […]

For the substance benzoylbenzoic ATP [BzATP], the “EC70 value for agonist activation” value was found to be 50 µM.

(Values after US7704997B1, “Amino-tetrazole analogues and methods of use” (Abbott Laboratories, priority 2004, dated 2010).)
